Results published in PubChem BioAssay (NCI).
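Cultured in 96-well plates, cells were exposed to test compound for 48 hours across five concentrations. TGI is the concentration that stops growth completely.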

Assays:
Assay in all cases: inhibition of tumour cell growth, NCI panel, 48 h
786-0 renal = system: 786-0 renal
A498 renal = system: A498 renal
A549 NSCLC = system: A549 NSCLC
CAKI-1 renal = system: CAKI-1 renal
CCRF-CEM leukemia = system: CCRF-CEM leukemia
COLO 205 colon = system: COLO 205 colon
DLD-1 colon = system: DLD-1 colon
DMS 114 small cell lung = system: DMS 114 small cell lung
DMS 273 small cell lung = system: DMS 273 small cell lung
EKVX NSCLC = system: EKVX NSCLC
HCC-2998 colon = system: HCC-2998 colon
HCT-116 colon = system: HCT-116 colon
HCT-15 colon = system: HCT-15 colon
HL-60(TB) leukemia = system: HL-60(TB) leukemia
HOP-18 NSCLC = system: HOP-18 NSCLC
HOP-92 NSCLC = system: HOP-92 NSCLC
HT29 colon = system: HT29 colon
IGROV1 ovarian = system: IGROV1 ovarian
K-562 leukemia = system: K-562 leukemia
KM12 colon = system: KM12 colon
KM20L2 colon = system: KM20L2 colon
LOX IMVI melanoma = system: LOX IMVI melanoma
LXFL 529 NSCLC = system: LXFL 529 NSCLC
M14 melanoma = system: M14 melanoma
M19-MEL melanoma = system: M19-MEL melanoma
MALME-3M melanoma = system: MALME-3M melanoma
MOLT-4 leukemia = system: MOLT-4 leukemia
NCI-H226 lung = system: NCI-H226 lung
NCI-H23 lung = system: NCI-H23 lung
NCI-H522 lung = system: NCI-H522 lung
OVCAR-3 ovarian = system: OVCAR-3 ovarian
OVCAR-4 ovarian = system: OVCAR-4 ovarian
OVCAR-5 ovarian = system: OVCAR-5 ovarian
OVCAR-8 ovarian = system: OVCAR-8 ovarian
RPMI-8226 leukemia = system: RPMI-8226 leukemia
RXF 393 renal = system: RXF 393 renal
SF-268 CNS = system: SF-268 CNS
SF-295 CNS = system: SF-295 CNS
SF-539 CNS = system: SF-539 CNS
SK-MEL-2 melanoma = system: SK-MEL-2 melanoma
SK-MEL-28 melanoma = system: SK-MEL-28 melanoma
SK-MEL-5 melanoma = system: SK-MEL-5 melanoma
SK-OV-3 ovarian = system: SK-OV-3 ovarian
SNB-19 CNS = system: SNB-19 CNS
SNB-75 CNS = system: SNB-75 CNS
SNB-78 CNS = system: SNB-78 CNS
SW-620 colon = system: SW-620 colon
TK-10 renal = system: TK-10 renal
U251 CNS = system: U251 CNS
UACC-257 melanoma = system: UACC-257 melanoma
UACC-62 melanoma = system: UACC-62 melanoma
UO-31 renal = system: UO-31 renal
XF 498 CNS = system: XF 498 CNS
ACHN renal = system: ACHN renal
HOP-62 NSCLC = system: HOP-62 NSCLC
NCI-H460 lung = system: NCI-H460 lung
RXF-631 renal = system: RXF-631 renal
SN12C renal = system: SN12C renal
SR leukemia = system: SR leukemia

Clc1cc(Cl)c2c(Cl)cc(Cl)c3c2c1N=S=N3
TGI (786-0 renal): > 100 µM | TGI (A498 renal): > 100 µM | TGI (A549 NSCLC): > 100 µM | TGI (CAKI-1 renal): > 100 µM | TGI (CCRF-CEM leukemia): > 100 µM | TGI (COLO 205 colon): > 100 µM | TGI (DLD-1 colon): > 100 µM | TGI (DMS 114 small cell lung): > 100 µM | TGI (DMS 273 small cell lung): > 100 µM | TGI (EKVX NSCLC): > 100 µM | TGI (HCC-2998 colon): > 100 µM | TGI (HCT-116 colon): > 100 µM | TGI (HCT-15 colon): > 100 µM | TGI (HL-60(TB) leukemia): > 100 µM | TGI (HOP-18 NSCLC): > 100 µM | TGI (HOP-92 NSCLC): > 100 µM | TGI (HT29 colon): > 100 µM | TGI (IGROV1 ovarian): > 100 µM | TGI (K-562 leukemia): > 100 µM | TGI (KM12 colon): > 100 µM | TGI (KM20L2 colon): > 100 µM | TGI (LOX IMVI melanoma): > 100 µM | TGI (LXFL 529 NSCLC): > 100 µM | TGI (M14 melanoma): > 100 µM | TGI (M19-MEL melanoma): > 100 µM | TGI (MALME-3M melanoma): > 100 µM | TGI (MOLT-4 leukemia): > 100 µM | TGI (NCI-H226 lung): > 100 µM | TGI (NCI-H23 lung): > 100 µM | TGI (NCI-H522 lung): > 100 µM | TGI (OVCAR-3 ovarian): > 100 µM | TGI (OVCAR-4 ovarian): > 100 µM | TGI (OVCAR-5 ovarian): > 100 µM | TGI (OVCAR-8 ovarian): > 100 µM | TGI (RPMI-8226 leukemia): > 100 µM | TGI (RXF 393 renal): > 100 µM | TGI (SF-268 CNS): > 100 µM | TGI (SF-295 CNS): > 100 µM | TGI (SF-539 CNS): > 100 µM | TGI (SK-MEL-2 melanoma): > 100 µM | TGI (SK-MEL-28 melanoma): > 100 µM | TGI (SK-MEL-5 melanoma): > 100 µM | TGI (SK-OV-3 ovarian): > 100 µM | TGI (SNB-19 CNS): > 100 µM | TGI (SNB-75 CNS): > 100 µM | TGI (SNB-78 CNS): > 100 µM | TGI (SW-620 colon): > 100 µM | TGI (TK-10 renal): > 100 µM | TGI (U251 CNS): > 100 µM | TGI (UACC-257 melanoma): > 100 µM | TGI (UACC-62 melanoma): > 100 µM | TGI (UO-31 renal): > 100 µM | TGI (XF 498 CNS): 49 µM

COc1ccc(/C=C/C(=O)c2sc(-n3nc(-c4ccccc4)cc3-c3ccccc3)nc2C)cc1OC
TGI (786-0 renal): > 100 µM | TGI (A549 NSCLC): > 100 µM | TGI (ACHN renal): > 100 µM | TGI (CAKI-1 renal): > 100 µM | TGI (CCRF-CEM leukemia): 92.1 µM | TGI (COLO 205 colon): > 100 µM | TGI (DLD-1 colon): > 100 µM | TGI (DMS 114 small cell lung): > 100 µM | TGI (DMS 273 small cell lung): > 100 µM | TGI (EKVX NSCLC): > 100 µM | TGI (HCC-2998 colon): > 100 µM | TGI (HCT-116 colon): > 100 µM | TGI (HCT-15 colon): > 100 µM | TGI (HL-60(TB) leukemia): 62.2 µM | TGI (HOP-18 NSCLC): > 100 µM | TGI (HOP-62 NSCLC): > 100 µM | TGI (HT29 colon): > 100 µM | TGI (IGROV1 ovarian): > 100 µM | TGI (K-562 leukemia): 83.3 µM | TGI (KM12 colon): > 100 µM | TGI (KM20L2 colon): 63.7 µM | TGI (LOX IMVI melanoma): 96.6 µM | TGI (LXFL 529 NSCLC): > 100 µM | TGI (M14 melanoma): > 100 µM | TGI (M19-MEL melanoma): > 100 µM | TGI (MALME-3M melanoma): > 100 µM | TGI (MOLT-4 leukemia): 64.8 µM | TGI (NCI-H226 lung): > 100 µM | TGI (NCI-H23 lung): > 100 µM | TGI (NCI-H460 lung): > 100 µM | TGI (NCI-H522 lung): 53.9 µM | TGI (OVCAR-3 ovarian): 62.5 µM | TGI (OVCAR-4 ovarian): > 100 µM | TGI (OVCAR-5 ovarian): 92.6 µM | TGI (OVCAR-8 ovarian): > 100 µM | TGI (RPMI-8226 leukemia): 70 µM | TGI (RXF 393 renal): > 100 µM | TGI (RXF-631 renal): > 100 µM | TGI (SF-268 CNS): 84.2 µM | TGI (SF-295 CNS): 74.2 µM | TGI (SF-539 CNS): 81.1 µM | TGI (SK-MEL-2 melanoma): > 100 µM | TGI (SK-MEL-28 melanoma): > 100 µM | TGI (SK-OV-3 ovarian): > 100 µM | TGI (SN12C renal): > 100 µM | TGI (SNB-19 CNS): > 100 µM | TGI (SR leukemia): 78.2 µM | TGI (SW-620 colon): > 100 µM | TGI (TK-10 renal): > 100 µM | TGI (U251 CNS): > 100 µM | TGI (UACC-257 melanoma): > 100 µM | TGI (UACC-62 melanoma): 52.2 µM | TGI (UO-31 renal): > 100 µM | TGI (XF 498 CNS): > 100 µM
